Results: ChEMBL document CHEMBL1909046, “DrugMatrix in vitro pharmacology data”

Assays:
[1] = molecular target: 5-hydroxytryptamine receptor 4 (Cavia porcellus, UniProt O70528); format: cell membranes, Dunkin-Hartley, Striatum, Membrane; note: in other assays of this panel Not Active means under 50% inhibition at 10 µM
[2] = molecular target: Cannabinoid receptor 1 (Homo sapiens, UniProt P21554); format: cell membranes, Chem-1, Membrane; conditions: chem-1; note: in other assays of this panel Not Active means under 50% inhibition at 10 µM
Chain of Cannabinoid receptor 1 (P21554 whole entry): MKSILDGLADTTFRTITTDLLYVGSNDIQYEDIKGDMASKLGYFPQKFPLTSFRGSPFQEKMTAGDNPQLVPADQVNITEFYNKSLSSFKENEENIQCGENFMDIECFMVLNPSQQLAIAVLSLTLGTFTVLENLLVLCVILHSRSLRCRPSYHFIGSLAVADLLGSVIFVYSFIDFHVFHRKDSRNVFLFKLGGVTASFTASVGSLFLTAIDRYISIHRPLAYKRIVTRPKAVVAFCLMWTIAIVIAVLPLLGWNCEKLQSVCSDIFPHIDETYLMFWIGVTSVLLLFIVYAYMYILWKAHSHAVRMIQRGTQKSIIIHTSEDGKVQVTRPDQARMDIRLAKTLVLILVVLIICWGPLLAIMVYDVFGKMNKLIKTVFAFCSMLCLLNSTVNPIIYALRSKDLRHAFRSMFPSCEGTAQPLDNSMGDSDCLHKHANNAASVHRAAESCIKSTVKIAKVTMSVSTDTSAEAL

[3] = molecular target: cGMP-specific 3',5'-cyclic phosphodiesterase (Homo sapiens, UniProt O76074); test: DRUGMATRIX: Phosphodiesterase PDE5 enzyme inhibition (substrate: [3H]cGMP + cGMP); format: tissue-based, Platelet; conditions: platelet; Not Active = under 50% inhibition at 10 µM
[4] = molecular target: T1, Angiotensin-converting enzyme (Oryctolagus cuniculus, UniProt P12822); format: tissue-based, Lung;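 note: enzymatic inhibition of angiotensin-converting enzyme measured with FAPGG as the substrate; in other assays of this panel Not Active means under 50% inhibition at 10 µM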
T1 sequence (P12822 whole entry): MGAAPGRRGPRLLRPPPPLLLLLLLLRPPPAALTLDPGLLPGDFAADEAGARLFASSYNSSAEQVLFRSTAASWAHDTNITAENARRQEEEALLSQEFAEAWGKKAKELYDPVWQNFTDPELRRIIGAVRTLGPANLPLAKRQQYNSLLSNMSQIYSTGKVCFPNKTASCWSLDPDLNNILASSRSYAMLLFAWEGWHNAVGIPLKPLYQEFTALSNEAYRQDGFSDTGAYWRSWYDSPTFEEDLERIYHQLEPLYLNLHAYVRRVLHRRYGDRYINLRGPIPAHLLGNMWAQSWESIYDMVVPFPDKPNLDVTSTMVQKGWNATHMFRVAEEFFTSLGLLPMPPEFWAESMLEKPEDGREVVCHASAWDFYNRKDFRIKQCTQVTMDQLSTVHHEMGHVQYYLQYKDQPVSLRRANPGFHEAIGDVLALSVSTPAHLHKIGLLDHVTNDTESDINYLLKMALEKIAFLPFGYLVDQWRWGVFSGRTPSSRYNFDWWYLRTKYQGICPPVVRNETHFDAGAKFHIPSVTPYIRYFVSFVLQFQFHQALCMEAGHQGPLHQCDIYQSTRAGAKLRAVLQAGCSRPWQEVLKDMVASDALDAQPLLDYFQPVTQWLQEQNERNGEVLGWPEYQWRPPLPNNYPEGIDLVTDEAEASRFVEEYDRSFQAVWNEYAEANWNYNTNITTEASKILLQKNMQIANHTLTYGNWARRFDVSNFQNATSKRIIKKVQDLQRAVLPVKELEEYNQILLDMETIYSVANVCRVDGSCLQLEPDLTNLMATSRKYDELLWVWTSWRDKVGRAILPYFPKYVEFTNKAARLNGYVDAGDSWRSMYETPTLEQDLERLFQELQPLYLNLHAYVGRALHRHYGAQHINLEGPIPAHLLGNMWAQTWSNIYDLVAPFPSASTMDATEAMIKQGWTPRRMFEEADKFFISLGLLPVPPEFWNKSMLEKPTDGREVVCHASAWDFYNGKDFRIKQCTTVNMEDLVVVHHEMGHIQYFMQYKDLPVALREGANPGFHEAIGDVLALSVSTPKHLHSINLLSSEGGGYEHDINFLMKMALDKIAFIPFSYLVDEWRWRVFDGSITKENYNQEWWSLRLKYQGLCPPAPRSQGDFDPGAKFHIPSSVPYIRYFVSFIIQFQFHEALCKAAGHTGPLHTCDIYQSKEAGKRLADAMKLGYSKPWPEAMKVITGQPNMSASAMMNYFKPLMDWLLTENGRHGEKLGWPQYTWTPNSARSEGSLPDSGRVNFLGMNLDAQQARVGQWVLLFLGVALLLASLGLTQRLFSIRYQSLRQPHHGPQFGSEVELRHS

[5] = molecular target: T2, Caspase-1 (Homo sapiens, UniProt P29466); design: species or system Escherichia coli;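 note: Caspase-1 enzyme inhibition assay with a peptide substrate; in other assays of this panel Not Active means under 50% inhibition at 10 µM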
T2 sequence (P29466 whole entry): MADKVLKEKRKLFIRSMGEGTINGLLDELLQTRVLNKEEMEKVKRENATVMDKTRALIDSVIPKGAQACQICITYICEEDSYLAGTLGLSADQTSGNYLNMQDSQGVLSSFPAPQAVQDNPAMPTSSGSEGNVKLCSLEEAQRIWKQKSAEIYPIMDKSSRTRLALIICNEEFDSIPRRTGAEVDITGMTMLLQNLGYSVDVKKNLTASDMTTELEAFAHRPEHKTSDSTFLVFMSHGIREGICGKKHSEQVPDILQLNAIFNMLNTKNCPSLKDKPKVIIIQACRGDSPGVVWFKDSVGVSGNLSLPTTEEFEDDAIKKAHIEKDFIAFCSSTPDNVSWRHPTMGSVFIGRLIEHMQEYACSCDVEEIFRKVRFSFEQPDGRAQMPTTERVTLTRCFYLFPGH

[6] = molecular target: T3, Interstitial collagenase (Homo sapiens, UniProt P03956); test: biochemical; format: tissue-based, Rheumatoid synovial fibroblasts
T3 sequence (P03956 whole entry): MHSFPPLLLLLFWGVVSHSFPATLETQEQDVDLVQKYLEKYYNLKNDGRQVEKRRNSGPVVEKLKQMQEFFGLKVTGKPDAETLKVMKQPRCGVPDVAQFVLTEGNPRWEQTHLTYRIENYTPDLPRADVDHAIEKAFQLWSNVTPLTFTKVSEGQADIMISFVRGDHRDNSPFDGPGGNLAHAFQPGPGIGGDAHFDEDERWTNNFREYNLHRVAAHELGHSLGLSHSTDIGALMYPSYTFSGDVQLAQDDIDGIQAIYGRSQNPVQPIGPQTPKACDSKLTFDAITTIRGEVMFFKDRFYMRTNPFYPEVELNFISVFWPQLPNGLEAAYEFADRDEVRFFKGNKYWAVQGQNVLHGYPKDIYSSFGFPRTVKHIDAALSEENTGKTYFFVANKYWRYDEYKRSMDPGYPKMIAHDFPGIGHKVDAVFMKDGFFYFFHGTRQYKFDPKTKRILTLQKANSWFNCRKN

[7] = DRUGMATRIX: Purinergic P2X radioligand binding (ligand: [3H] alpha, beta-Methylene-ATP); format: cell membranes, Oryctolagus cuniculus, New Zealand albino, Urinary bladder, Membrane; conditions: Not Active = under 50% inhibition at 10 µM
[8] = molecular target: Cytochrome P450 2D6 (Homo sapiens, UniProt P10635); conditions: bti-tn-5b1-4; note: in other assays of this panel Not Active means under 50% inhibition at 10 µM
Chain of Cytochrome P450 2D6 (P10635 whole entry): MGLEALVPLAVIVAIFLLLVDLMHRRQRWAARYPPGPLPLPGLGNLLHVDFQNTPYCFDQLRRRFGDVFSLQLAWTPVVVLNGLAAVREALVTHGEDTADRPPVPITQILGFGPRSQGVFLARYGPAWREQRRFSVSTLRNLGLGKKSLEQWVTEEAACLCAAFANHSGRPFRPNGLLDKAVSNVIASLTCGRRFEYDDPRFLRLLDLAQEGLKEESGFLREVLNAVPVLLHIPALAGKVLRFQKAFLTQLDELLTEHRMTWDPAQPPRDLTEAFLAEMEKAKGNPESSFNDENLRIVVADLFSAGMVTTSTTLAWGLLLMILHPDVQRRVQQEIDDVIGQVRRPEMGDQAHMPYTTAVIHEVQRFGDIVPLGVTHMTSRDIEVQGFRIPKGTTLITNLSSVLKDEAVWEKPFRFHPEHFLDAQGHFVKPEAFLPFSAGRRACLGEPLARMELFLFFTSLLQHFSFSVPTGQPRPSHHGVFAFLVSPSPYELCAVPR

[9] = molecular target: Estrogen receptor beta (Homo sapiens, UniProt Q92731); conditions: sf9; note: in other assays of this panel Not Active means under 50% inhibition at 10 µM
Chain of Estrogen receptor beta (Q92731 whole entry): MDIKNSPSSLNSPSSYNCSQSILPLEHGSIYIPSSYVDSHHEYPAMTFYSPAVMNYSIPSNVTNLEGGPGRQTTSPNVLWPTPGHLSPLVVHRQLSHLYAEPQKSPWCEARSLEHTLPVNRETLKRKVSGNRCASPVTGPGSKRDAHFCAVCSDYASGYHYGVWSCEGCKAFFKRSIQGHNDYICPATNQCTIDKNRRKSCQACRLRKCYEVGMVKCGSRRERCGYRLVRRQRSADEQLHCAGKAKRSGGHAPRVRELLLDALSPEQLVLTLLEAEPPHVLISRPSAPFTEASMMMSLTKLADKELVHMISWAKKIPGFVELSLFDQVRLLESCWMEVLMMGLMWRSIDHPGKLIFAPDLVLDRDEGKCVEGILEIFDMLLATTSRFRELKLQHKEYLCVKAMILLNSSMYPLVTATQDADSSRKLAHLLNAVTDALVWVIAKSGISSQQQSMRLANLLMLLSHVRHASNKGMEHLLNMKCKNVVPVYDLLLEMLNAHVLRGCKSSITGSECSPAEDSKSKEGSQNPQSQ

Chain of 5-hydroxytryptamine receptor 4 (O70528 whole entry): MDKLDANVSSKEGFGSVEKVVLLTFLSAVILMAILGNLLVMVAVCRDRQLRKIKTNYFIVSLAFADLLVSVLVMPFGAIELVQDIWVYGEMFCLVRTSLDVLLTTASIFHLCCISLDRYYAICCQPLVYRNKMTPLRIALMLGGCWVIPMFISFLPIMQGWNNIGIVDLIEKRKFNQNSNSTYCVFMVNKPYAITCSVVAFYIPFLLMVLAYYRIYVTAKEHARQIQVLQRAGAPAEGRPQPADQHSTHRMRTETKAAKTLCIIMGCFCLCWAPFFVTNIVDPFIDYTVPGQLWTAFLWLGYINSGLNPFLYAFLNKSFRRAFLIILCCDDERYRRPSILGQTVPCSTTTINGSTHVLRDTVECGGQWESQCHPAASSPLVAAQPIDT

CCN1CCC[C@H]1CNC(=O)c1cc(S(N)(=O)=O)ccc1OC [LEVOSULPIRIDE]
Not Active: IC50 [1] | IC50 [2] | IC50 [3] | IC50 [4] | IC50 [5] | IC50 [6] | IC50 [7] | Ki [7] | IC50 [8] | Ki [8] | IC50 [9]

O=C1Nc2ccc(Cl)cc2C(c2ccccc2Cl)=NC1O (stereo unspecified) [LORAZEPAM]
Not Active: IC50 [1] | IC50 [2] | IC50 [3] | IC50 [4] | IC50 [5] | IC50 [6] | IC50 [7] | Ki [7] | IC50 [8] | Ki [8] | IC50 [9]

COc1c2occc2cc2ccc(=O)oc12 [METHOXSALEN]
Not Active: IC50 [1] | IC50 [2] | IC50 [3] | IC50 [4] | IC50 [5] | IC50 [6] | IC50 [7] | Ki [7] | IC50 [8] | Ki [8] | IC50 [9]

Nc1cc(N2CCCCC2)nc(N)[n+]1[O-] [MINOXIDIL]
Not Active: IC50 [1] | IC50 [2] | IC50 [3] | IC50 [4] | IC50 [5] | IC50 [6] | IC50 [7] | Ki [7] | IC50 [8] | Ki [8] | IC50 [9]

CO[C@H]1/C=C/O[C@@]2(C)Oc3c(C)c(O)c4c(O)c(c(/C=N/N5CCN(C6CCCC6)CC5)c(O)c4c3C2=O)NC(=O)/C(C)=C\C=C\[C@H](C)[C@H](O)[C@@H](C)[C@@H](O)[C@@H](C)[C@H](OC(C)=O)[C@@H]1C [RIFAPENTINE]
Not Active: IC50 [1] | IC50 [2] | IC50 [3] | IC50 [4] | IC50 [5] | IC50 [6] | IC50 [7] | Ki [7] | IC50 [8] | Ki [8] | IC50 [9]

CCCCOc1cc(CC2CNC(=O)N2)ccc1OC (stereo unspecified) [RO-201724]
Not Active: IC50 [1] | IC50 [2] | IC50 [3] | IC50 [4] | IC50 [5] | IC50 [6] | IC50 [7] | Ki [7] | IC50 [8] | Ki [8] | IC50 [9]

CC[C@@H](C(=O)[C@@H](C)[C@@H](O)[C@H](C)[C@@H]1O[C@@H]([C@@H](CC)C(=O)O)CC[C@@H]1C)[C@H]1O[C@]2(C=C[C@@H](O)[C@]3(CC[C@@](C)([C@H]4CC[C@](O)(CC)[C@H](C)O4)O3)O2)[C@H](C)C[C@@H]1C [SALINOMYCIN]
Not Active: IC50 [1] | IC50 [2] | IC50 [3] | IC50 [4] | IC50 [5] | IC50 [6] | IC50 [7] | Ki [7] | IC50 [8] | Ki [8] | IC50 [9]

CC(C)NCC(O)c1ccc(NS(C)(=O)=O)cc1 (stereo unspecified) [SOTALOL]
Not Active: IC50 [1] | IC50 [2] | IC50 [3] | IC50 [4] | IC50 [5] | IC50 [6] | IC50 [7] | Ki [7] | IC50 [8] | Ki [8] | IC50 [9]

NC(=O)N1C(=O)/C(=C(\O)c2cccs2)c2cc(Cl)ccc21 [TENIDAP]
Not Active: IC50 [1] | IC50 [2] | IC50 [3] | IC50 [4] | IC50 [5] | IC50 [6] | IC50 [7] | Ki [7] | IC50 [8] | Ki [8] | IC50 [9]

COc1cc2nc(N3CCN(C(=O)C4CCCO4)CC3)nc(N)c2cc1OC (stereo unspecified) [TERAZOSIN]
Not Active: IC50 [1] | IC50 [2] | IC50 [3] | IC50 [4] | IC50 [5] | IC50 [6] | IC50 [7] | Ki [7] | IC50 [8] | Ki [8] | IC50 [9]

CCN(CC)CCNC(=O)c1cc(S(C)(=O)=O)ccc1OC [TIAPRIDE]
Not Active: IC50 [1] | IC50 [2] | IC50 [3] | IC50 [4] | IC50 [5] | IC50 [6] | IC50 [7] | Ki [7] | IC50 [8] | Ki [8] | IC50 [9]
